# Source: US12048316B2, “Sweetener and flavor compositions, methods of making and methods of use thereof” (EPC Natural Products Co., Ltd., priority 2018, dated 2024)
# Tests used:
# [1] = HPLC/MS quantitative evaluation: degradation of reaction partners and formation of MRI at various pH-conditions; type: physicochemical; details: pH = 7.0
# Protocol: All samples were analyzed by HPLC/ISIS using following conditions.
# Quantitative evaluation was performed using external standardization.
# [2] = Assay to test DPPH radical-scavenging activity; type: biochemical; details: combinations of amino acids and Reb-A, 100° C.; less pronounced than glucose or xylose
# Protocol: 1 mg 1,1-Diphenyl-2-picrylhydrazyl radical (DPPH)/ml ethanol, dilution to assay concentration were prepared in ethanol (40 μg/mL); Calibration samples were prepared with Ascorbic acid in a concentration of 0-10 μg/mL, as a negative control sample, water was used.
# Samples in aqueous solution were used as such or diluted with water.
# A 0.1 ml sample (or calibration standard) was mixed with 3.9 ml solution of DPPH (100 μMolar) and reacted while protected from light at room temperature for 30 min. Absorbance was determined at 517 nm against ethanol.
# 10 mM of amino acid and/or 10 mM sugar were dissolved in 10 ml 0.1 mM KH2PO4-buffer, pH=7.8
# The samples were kept at 100° C. in sealed glass vials (Pyrex 15 ml with screw caps) for 0 (before reaction), 2.5 or 5.0 hours. Thereafter the samples were transferred to an ice water bath and cooled down to room temperature. These samples were diluted 1:10 and used for the test assay for anti-oxidant potential.
# [3] = relative to sucrose (sugar, cane sugar); depends on the tested concentration; cited from earlier work
SMILES,times sweeter than sucrose / sugar [3],also measured
"O=C[C@H](O)[C@@H](O)[C@H](O)[C@H](O)CO [Glu, Glucose]",,% degradation ([1]; reaction Phe + Gluc): 4.6%
"C=C1C[C@@]23CC[C@H]4[C@@](C)(CCC[C@@]4(C)C(=O)O[C@@H]4O[C@H](CO)[C@@H](O)[C@H](O)[C@H]4O)[C@@H]2CC[C@]1(O[C@@H]1O[C@H](CO)[C@@H](O)[C@H](O[C@@H]2O[C@H](CO)[C@@H](O)[C@H](O)[C@H]2O)[C@H]1O[C@@H]1O[C@H](CO)[C@@H](O)[C@H](O)[C@H]1O)C3 [Reb-A, Rebaudioside A]",,"anti-oxidant properties (iron-III reduction, radical scavenging) [2]: substantial anti-oxidant properties"
C=C1C[C@@]23CC[C@H]4[C@@](C)(CCC[C@@]4(C)C(=O)O[C@@H]4O[C@H](CO)[C@@H](O)[C@H](O)[C@H]4O)[C@@H]2CC[C@]1(O[C@@H]1O[C@H](CO)[C@@H](O)[C@H](O)[C@H]1O)C3 [Rubusoside],200 times,
"O=C[C@H](O)[C@@H](O)[C@H](O)CO [Xyl, xylose]",,% degradation ([1]; reaction Phe + Xyl): 6.3%
O=S(=O)([O-])NC1CCCCC1.[Na+] [sodium cyclamate],about 30 times,
OC[C@H]1O[C@H](O[C@]2(CCl)O[C@H](CCl)[C@@H](O)[C@@H]2O)[C@H](O)[C@@H](O)[C@H]1Cl [sucralose],about 600 times,
